The text below walks through data of ChEMBL document CHEMBL5230104, “Systemic review on B-RafV600E mutation as potential therapeutic target for the treatment of cancer” (Eur J Med Chem, 2020).

Experiment [1] has as its target T1, Serine/threonine-protein kinase B-raf (Homo sapiens, UniProt P15056). The experiment is described as follows: Inhibition of human wild type B-Raf (433 to 726 residues) expressed in Escherichia coli BL21 cells by ELISA based assay. Background: In an ELISA, binding on a coated surface is turned into a signal by an enzyme label.
The target in experiment [2] is T2, Serine/threonine-protein kinase B-raf (Homo sapiens, UniProt P15056, V600E). The experiment is described as follows: Inhibition of human B-Raf V600E mutant (433 to 726 residues) expressed in Escherichia coli BL21 cells by ELISA based assay.
Target sequence in this assay (P15056 2-766 V600E limits assumed): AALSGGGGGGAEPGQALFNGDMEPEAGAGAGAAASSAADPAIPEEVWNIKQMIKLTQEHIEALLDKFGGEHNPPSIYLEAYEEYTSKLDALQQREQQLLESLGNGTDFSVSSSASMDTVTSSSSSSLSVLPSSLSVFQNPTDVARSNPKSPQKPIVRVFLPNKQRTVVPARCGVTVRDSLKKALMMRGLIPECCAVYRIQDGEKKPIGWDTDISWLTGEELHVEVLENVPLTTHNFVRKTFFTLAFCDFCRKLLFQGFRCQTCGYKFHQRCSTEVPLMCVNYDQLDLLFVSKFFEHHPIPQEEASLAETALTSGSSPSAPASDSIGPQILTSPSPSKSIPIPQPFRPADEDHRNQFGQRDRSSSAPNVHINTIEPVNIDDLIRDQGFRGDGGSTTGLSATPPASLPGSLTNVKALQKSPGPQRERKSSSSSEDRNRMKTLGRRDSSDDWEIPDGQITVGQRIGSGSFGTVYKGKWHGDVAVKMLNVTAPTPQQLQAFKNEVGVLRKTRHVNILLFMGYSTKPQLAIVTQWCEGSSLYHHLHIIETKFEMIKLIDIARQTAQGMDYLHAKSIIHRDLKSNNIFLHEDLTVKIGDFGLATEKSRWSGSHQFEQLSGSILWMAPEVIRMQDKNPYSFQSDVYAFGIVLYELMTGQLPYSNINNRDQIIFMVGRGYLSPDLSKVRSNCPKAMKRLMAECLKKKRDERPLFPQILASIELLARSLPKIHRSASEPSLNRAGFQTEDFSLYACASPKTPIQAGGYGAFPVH
Experiment [3] concerns the target T1, Serine/threonine-protein kinase B-raf. As to the kind of experiment: Inhibition of wild type B-Raf (unknown origin) incubated for 1 hr by ELISA based luminescence assay.
Experiment [4] addresses T2, Serine/threonine-protein kinase B-raf. As to the kind of experiment: Inhibition of B-Raf V600E mutant (unknown origin) incubated for 1 hr by ELISA based luminescence assay.
Target sequence in this assay (P15056 2-766 V600E limits assumed): as above
Experiment [5] has as its target Serine/threonine-protein kinase B-raf (Mus musculus, UniProt P28028). As to the kind of experiment: Inhibition of full length GST tagged mouse wild type B-Raf preincubated for 1 hr and measured after 25 mins in presence of ATP.
Experiment [6] concerns A-375. The experiment is described as follows: Antiproliferative activity against human A-375 cells incubated for 24 hrs by MTT assay. The experiment is classed as functional, cell-based. To be noted: A-375, 24 h.
Experiment [7] in a line: Antiproliferative activity against human WM1361 cells incubated for 24 hrs by MTT assay. The format is functional, cell-based. The following applies: WM1361, 24 h. A general note: Formazan colour is commonly taken as a measure of viable cells.
The nature of experiment [8]: Inhibition of full length GST tagged mouse B-Raf V600E mutant preincubated for 1 hr and measured after 25 mins in presence of ATP.
Experiment [9] relates to A-375. The experiment is described as follows: Antiproliferative activity against human A-375 cells incubated for 72 hrs by celltiter glo assay. The format is functional, cell-based. The following applies: A-375, 72 h. A general note: Cellular ATP, detected with luciferase, serves as a proxy for viable cell number.
For experiment [10], the system named is COLO 205. The experiment is described as follows: Antiproliferative activity against human COLO 205 cells incubated for 72 hrs by celltiter glo assay. The format is functional, cell-based. The following applies: COLO 205, 72 h.
Another experiment deals with SW1417. The experiment is described as follows: Antiproliferative activity against human SW1417 cells incubated for 72 hrs by celltiter glo assay. The format is functional, cell-based. The following applies: SW1417, 72 h.
Another experiment relates to WM-115. The experiment is described as follows: Antiproliferative activity against human WM-115 cells incubated for 72 hrs by celltiter glo assay. To be noted: WM-115, 72 h. The experiment is classed as functional, cell-based.
Another experiment relates to RKO. The experiment is described as follows: Antiproliferative activity against human RKO cells incubated for 72 hrs by celltiter glo assay. The format is functional, cell-based.
For experiment [11], the target named is T1, Serine/threonine-protein kinase B-raf. The experiment is described as follows: Inhibition of wild type B-Raf (unknown origin).
In experiment [12] the target is T2, Serine/threonine-protein kinase B-raf. The experiment is described as follows: (§1) Inhibition of B-Raf V600E mutant (unknown origin).
Target sequence in this assay (P15056 whole entry V600E, the tested form may be a part): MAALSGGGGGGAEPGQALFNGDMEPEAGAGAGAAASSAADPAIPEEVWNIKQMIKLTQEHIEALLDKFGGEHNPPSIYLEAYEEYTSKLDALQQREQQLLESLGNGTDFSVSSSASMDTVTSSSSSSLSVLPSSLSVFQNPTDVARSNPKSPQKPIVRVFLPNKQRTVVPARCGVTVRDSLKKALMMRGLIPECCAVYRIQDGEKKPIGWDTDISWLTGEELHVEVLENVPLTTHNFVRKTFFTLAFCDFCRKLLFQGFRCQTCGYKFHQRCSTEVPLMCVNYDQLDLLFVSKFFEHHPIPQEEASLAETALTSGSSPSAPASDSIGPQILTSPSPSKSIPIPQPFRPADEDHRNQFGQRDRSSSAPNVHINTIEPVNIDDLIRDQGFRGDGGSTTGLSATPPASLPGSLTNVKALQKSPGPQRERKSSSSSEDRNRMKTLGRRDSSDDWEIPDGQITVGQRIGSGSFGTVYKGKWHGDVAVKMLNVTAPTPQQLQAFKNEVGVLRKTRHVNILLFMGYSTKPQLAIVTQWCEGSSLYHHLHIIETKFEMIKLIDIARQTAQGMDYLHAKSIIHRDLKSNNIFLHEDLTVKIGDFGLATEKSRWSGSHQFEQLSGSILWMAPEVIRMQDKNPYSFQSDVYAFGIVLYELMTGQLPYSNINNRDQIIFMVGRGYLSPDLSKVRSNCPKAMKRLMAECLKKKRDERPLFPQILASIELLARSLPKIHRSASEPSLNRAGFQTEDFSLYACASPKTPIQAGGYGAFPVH
The subject of experiment [13] is A-375. The experiment is described as follows: Antiproliferative activity against human A-375 cells assessed as cell growth inhibition. The experiment is classed as functional, cell-based.
Experiment [14] is described as follows: Antiproliferative activity against human WM1361 cells assessed as cell growth inhibition. The format is functional, cell-based.
Experiment [15] deals with A-375. The experiment is described as follows: Antiproliferative activity against human A-375 cells incubated for 48 hrs by MTT based colorimetric method. The format is functional, cell-based. To be noted: A-375, 48 h.
In experiment [16] the test system is WM 266-4. As to the kind of experiment: Antiproliferative activity against human WM266-4 cells incubated for 48 hrs by MTT based colorimetric method. The following applies: WM 266-4, 48 h. The experiment is classed as functional, cell-based.
Experiment [17] has as its system Serine/threonine-protein kinase B-raf (Homo sapiens), P15056 [V600E]. Described as §1.
In experiment [18] the test system is A-375. As to the kind of experiment: Cytotoxicity against human A-375 cells. The experiment is classed as functional, cell-based.
The test system of experiment [19] is A-375. The experiment is described as follows: Antitumor activity against human A-375 cells xenografted in mouse model assessed as tumor growth inhibition at 50 mg/kg relative to control. The format is functional. On the set-up: scale not given: the % may be the effect or the level left.
The next experiment concerns HUVEC. The experiment is described as follows: Cytotoxicity against HUVEC cells. The format is functional, cell-based. To be noted: Homo sapiens.
The subject of experiment [20] is A-375. The experiment is described as follows: Antiproliferative activity against human A-375 cells assessed as inhibition of cell viability. The format is functional, cell-based.
For experiment [21], the target named is T2, Serine/threonine-protein kinase B-raf. The experiment is described as follows: Inhibition of B-Raf V600E mutant (unknown origin) by ELISA based assay.
Target sequence in this assay (P15056 2-766 V600E limits assumed): as the sequence (P15056 2-766 V600E limits assumed) above
In experiment [22] the test system is COLO 205. The experiment is described as follows: Antiproliferative activity against human COLO 205 cells assessed as inhibition of cell growth incubated for 72 hrs by MTT assay. The format is functional, cell-based. The following applies: COLO 205, 72 h.
Experiment [23] has as its system A-375. As to the kind of experiment: Antiproliferative activity against human A-375 cells assessed as inhibition of cell growth incubated for 72 hrs by MTT assay. The experiment is classed as functional, cell-based. To be noted: A-375, 72 h.
Experiment [24] deals with T1, Serine/threonine-protein kinase B-raf. As to the kind of experiment: Inhibition of wild type B-Raf (unknown origin) by ELISA based assay.
Another experiment deals with HT-29. As to the kind of experiment: Antiproliferative activity against human HT-29 cells assessed as inhibition of cell growth incubated for 72 hrs by MTT assay. To be noted: HT-29, 72 h. The format is functional, cell-based.
Experiment [25] deals with A-375. The experiment is described as follows: Antiproliferative activity against human A-375 cells measured after 48 hrs by MTT assay. The format is functional, cell-based. To be noted: A-375, 48 h.
Experiment [26] concerns WM 266-4. The experiment is described as follows: Antiproliferative activity against human WM266-4 cells measured after 48 hrs by MTT assay. To be noted: WM 266-4, 48 h. The experiment is classed as functional, cell-based.
Experiment [27] is described as follows: Antiproliferative activity against human WM1361 cells measured after 48 hrs by MTT assay. The experiment is classed as functional, cell-based. The following applies: WM1361, 48 h.
The subject of another experiment is MDA-MB-468. As to the kind of experiment: Antiproliferative activity against human MDA-MB-468 cells. The experiment is classed as functional, cell-based.
Experiment [28] addresses T2, Serine/threonine-protein kinase B-raf. As to the kind of experiment: Binding affinity to B-Raf V600E mutant (unknown origin).
Target sequence in this assay (P15056 2-766 V600E limits assumed): as above
The subject of a further experiment is K562. The experiment is described as follows: Antiproliferative activity against human K562 cells. The experiment is classed as functional, cell-based.
The subject of another experiment is RPMI-8226. The experiment is described as follows: Antiproliferative activity against human RPMI-8226 cells. The format is functional, cell-based.
A further experiment has as its system SK-MEL-5. The experiment is described as follows: Antiproliferative activity against human SK-MEL-5 cells. The format is functional, cell-based.

T1 sequence (P15056 whole entry, the tested form may be a part): as the sequence (P15056 whole entry V600E, the tested form may be a part) above, with E600V counted along it
Chain of Serine/threonine-protein kinase B-raf (Mus musculus, UniProt P28028) (P28028 whole entry): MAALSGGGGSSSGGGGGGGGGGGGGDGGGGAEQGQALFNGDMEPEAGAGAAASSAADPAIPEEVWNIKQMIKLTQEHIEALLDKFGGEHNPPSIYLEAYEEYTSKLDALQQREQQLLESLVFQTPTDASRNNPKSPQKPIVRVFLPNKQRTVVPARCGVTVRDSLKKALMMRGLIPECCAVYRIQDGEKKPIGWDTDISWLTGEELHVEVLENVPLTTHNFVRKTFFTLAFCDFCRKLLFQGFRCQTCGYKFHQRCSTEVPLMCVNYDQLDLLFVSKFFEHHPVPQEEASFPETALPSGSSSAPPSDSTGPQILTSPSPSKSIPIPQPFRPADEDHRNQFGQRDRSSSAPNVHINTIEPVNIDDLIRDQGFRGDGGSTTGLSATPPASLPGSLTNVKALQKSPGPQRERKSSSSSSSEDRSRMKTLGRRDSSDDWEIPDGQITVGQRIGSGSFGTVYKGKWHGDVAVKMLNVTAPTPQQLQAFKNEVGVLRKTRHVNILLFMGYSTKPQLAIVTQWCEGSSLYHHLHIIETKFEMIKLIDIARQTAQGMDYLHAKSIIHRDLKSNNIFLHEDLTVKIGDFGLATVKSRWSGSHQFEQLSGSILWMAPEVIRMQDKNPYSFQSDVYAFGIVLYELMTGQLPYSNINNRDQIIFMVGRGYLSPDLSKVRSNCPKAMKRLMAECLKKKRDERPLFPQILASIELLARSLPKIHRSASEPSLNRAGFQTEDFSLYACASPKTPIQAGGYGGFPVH
Chain of Serine/threonine-protein kinase B-raf (Homo sapiens), P15056 [V600E] (P15056 whole entry V600E): as the sequence (P15056 whole entry V600E, the tested form may be a part) above

Regarding `COC(=O)c1ccccc1-c1ccc(/C=C/[N+](=O)[O-])o1`, the IC50 (usually the concentration that gives 50% inhibition) was 1380 nM in experiment [1] and 1960 nM in experiment [2].

`Cc1cnc2[nH]cc(C(=O)c3c(F)ccc(N[S+]([O-])C(C)C)c3F)c2c1` (stereo not drawn): the values for the IC50 in [3] and in experiment [4] were 200 nM and 54 nM, respectively.

With `Cc1ccc(-n2cc(NC(=O)c3c[nH]c4ccccc34)cn2)cc1`, the IC50 was 920 nM in experiment [5], 930 nM in the experiment with A-375 [6], 10000 nM in [7] and 100 nM in [8].

Turning to `CC(=O)Nc1cc(-c2sc(C3CCN(C4CC4)CC3)nc2-c2cccc(NS(=O)(=O)c3cc(F)ccc3F)c2F)ccn1`, the IC50 in the experiment with A-375 [9] turned out to be 3 nM; in the experiment with COLO 205 [10], 5 nM; in the experiment with SW1417, 208 nM; in the experiment with WM-115, 148 nM; in the experiment on RKO it was 2280 nM.

For `COc1ccc(-n2cc(NC(=O)c3cccc(NC(=O)Nc4ccc(Cl)c(C(F)(F)F)c4)c3)cn2)cc1`, the 50% inhibitory concentration (IC50) was 220 nM in [11], 35 nM in experiment [12], 390 nM with A-375 [13] and 7120 nM in experiment [14].

With `COc1ccc(-n2cc(Nc3cccc4[nH]ncc34)cn2)cc1`, the IC50 in experiment [5] stood at 770 nM; with A-375 [15] it was 340 nM; in experiment [8], 40 nM; with WM 266-4 [16], 380 nM.

On to `CNC(=O)c1nc2ccc(C(=O)c3cccc(NC(=O)Nc4ccc(Cl)c(C(F)(F)F)c4)c3)cc2[nH]1`, for which the IC50 came to 57.8 nM in experiment [17], 3620 nM in the experiment with A-375 [18] and 12500 nM with HUVEC. The Activity in the experiment with A-375 [19] is recorded as 17.99%.

Consider `CC(C)(C)c1cc(NC(=O)Nc2ccc(Oc3ccnc4[nH]c(=O)cnc34)cc2F)n(-c2ccccc2)n1`, for which the results for the IC50 (in experiment [11]; with A-375 [20]) were 100 nM and 12000 nM, respectively.

Consider `CCC[S+]([O-])Nc1ccc(F)c(Cc2c[nH]c3nc(N)n(C)c(=O)c23)c1F` (stereo not drawn), for which the IC50 in experiment [21] amounted to 50 nM; with COLO 205 [22], 1640 nM; in the experiment with A-375 [23], 800 nM; in experiment [24], 440 nM; in the experiment on HT-29 it was 550 nM.

For `COc1ccc(S(=O)(=O)Nc2cc(-c3ccc(C)cc3)[nH]n2)cc1`, the concentration for half-maximal inhibition (IC50) with A-375 [25] was found to be 2040 nM; in the experiment with WM 266-4 [26], 1580 nM; in experiment [27], 10100 nM; in experiment [8], 180 nM.

For the compound `COc1cccc(-c2nn(-c3ccccc3)cc2-c2ccncc2)c1`, the concentration for half-maximal inhibition (IC50) stood at 6700 nM in the experiment with MDA-MB-468, 1440 nM in experiment [28], 3420 nM with K562 and 1710 nM with RPMI-8226.

On to `O=S(=O)(NCCCNc1cc(-c2cn(-c3ccccc3)nc2-c2cccc(O)c2)ccn1)c1ccc(Cl)cc1`, for which the concentration for half-maximal inhibition (IC50) in experiment [11] was found to be 4870 nM; in experiment [12] it was 1160 nM; in the experiment on SK-MEL-5, 1270 nM.
